Test results: PMC4303209, “A novel phosphatidylinositol 3-kinase (PI3K) inhibitor directs a potent FOXO-dependent, p53-independent cell cycle arrest phenotype characterized by the differential induction of a subset of FOXO-regulated genes” (Breast Cancer Research : BCR, 2014)

Test system: MCF-7 breast cancer cells
Experiment: Microarray gene expression analysis (Agilent whole human genome 4 x 44K; compound vs DMSO, LIMMA log2 fold change)
Assay type: cell-based
Conditions: cell cycle genes

Cn1ncc2c(N3CCOCC3)nc(-c3cccc(O)c3)nc21 [ETP-45658]
TUBB3 log2FC (Gene 10381): -0.638 | ANAPC10 log2FC (Gene 10393): 0.516 | NDRG1 log2FC (Gene 10397): 1.084 | GNB2L1 log2FC (Gene 10399): -0.052 | PRMT5 log2FC (Gene 10419): -0.043 | MAD2L2 log2FC (Gene 10459): -0.088 | TACC3 log2FC (Gene 10460): -0.430 | CREB3 log2FC (Gene 10488): -0.118 | MYBBP1A log2FC (Gene 10514): -0.538 | CIB1 log2FC (Gene 10519): -0.090 | SSSCA1 log2FC (Gene 10534): -0.330 | DCTN2 log2FC (Gene 10540): 0.043 | SMC2 log2FC (Gene 10592): 0.719 | ERN2 log2FC (Gene 10595): -0.829 | USP16 log2FC (Gene 10600): 0.971 | HEXIM1 log2FC (Gene 10614): -0.354 | SPAG5 log2FC (Gene 10615): 0.309 | STAMBP log2FC (Gene 10617): 0.425 | TXNIP log2FC (Gene 10628): 2.131 | PDPN log2FC (Gene 10630): -0.069 | RGS14 log2FC (Gene 10636): 0.556 | CTCF log2FC (Gene 10664): -0.082 | CGRRF1 log2FC (Gene 10668): 0.871 | CGREF1 log2FC (Gene 10669): -0.152 | USP39 log2FC (Gene 10713): 0.041 | NUDC log2FC (Gene 10726): -0.412 | PLK4 log2FC (Gene 10733): 0.611 | STAG3 log2FC (Gene 10734): 0.527 | STAG2 log2FC (Gene 10735): 1.297 | NES log2FC (Gene 10763): -0.458 | PLK2 log2FC (Gene 10769): -0.887 | NEK6 log2FC (Gene 10783): -0.620 | SDCCAG8 log2FC (Gene 10806): 0.654 | TUBGCP2 log2FC (Gene 10844): -0.131 | LILRB1 log2FC (Gene 10859): -0.164 | USP19 log2FC (Gene 10869): 0.174 | BLCAP log2FC (Gene 10904): -0.662 | TXNL4A log2FC (Gene 10907): -0.510 | SUGT1 log2FC (Gene 10910): 0.410 | GADD45G log2FC (Gene 10912): -0.067 | EHMT2 log2FC (Gene 10919): 0.089 | BTG3 log2FC (Gene 10950): -0.035 | MAPRE2 log2FC (Gene 10982): -0.284 | KIF2C log2FC (Gene 11004): 0.489 | TLK2 log2FC (Gene 11011): 0.607 | RAB35 log2FC (Gene 11021): -0.457 | TDRKH log2FC (Gene 11022): 0.089 | PIM2 log2FC (Gene 11040): -0.863 | UBE2C log2FC (Gene 11065): -0.393 | TRIOBP log2FC (Gene 11078): 0.398 | NUPL2 log2FC (Gene 11097): 0.144 | KATNA1 log2FC (Gene 11104): 0.716 | PRDM4 log2FC (Gene 11108): 0.462 | CIT log2FC (Gene 11113): 0.376 | ZWINT log2FC (Gene 11130): -0.088 | CDC37 log2FC (Gene 11140): -0.282 | LZTS1 log2FC (Gene 11178): -0.979 | WDR6 log2FC (Gene 11180): -0.468 | RASSF1 log2FC (Gene 11186): 1.482 | CEP250 log2FC (Gene 11190): -0.206 | PMF1 log2FC (Gene 11243): -0.207 | DCTN3 log2FC (Gene 11258): 0.235 | TUSC2 log2FC (Gene 11334): -0.766 | OIP5 log2FC (Gene 11339): 0.202 | MAPRE1 log2FC (Gene 22919): -0.363 | MAPRE3 log2FC (Gene 22924): 0.034 | TRIM32 log2FC (Gene 22954): -0.374 | TPX2 log2FC (Gene 22974): 0.049 | AZI1 log2FC (Gene 22994): 0.520 | CEP152 log2FC (Gene 22995): 0.685 | USP33 log2FC (Gene 23032): 1.045 | WAPAL log2FC (Gene 23063): 0.789 | TRIM35 log2FC (Gene 23087): 0.473 | CLASP2 log2FC (Gene 23122): 0.610 | POGZ log2FC (Gene 23126): 0.396 | PHF8 log2FC (Gene 23133): -0.483 | SMC5 log2FC (Gene 23137): -0.109 | FBXL7 log2FC (Gene 23194): -0.171 | PSME4 log2FC (Gene 23198): 0.174 | RRS1 log2FC (Gene 23212): -0.840 | NUP210 log2FC (Gene 23225): -0.548 | PLCB1 log2FC (Gene 23236): 1.212 | BOP1 log2FC (Gene 23246): -0.416 | NUP160 log2FC (Gene 23279): -0.451 | FBXW11 log2FC (Gene 23291): -0.357 | UBR2 log2FC (Gene 23304): 0.788 | USP22 log2FC (Gene 23326): 0.274 | CLASP1 log2FC (Gene 23332): -0.307 | PPP1R13B log2FC (Gene 23368): 0.098 | DICER1 log2FC (Gene 23405): -0.887 | SIRT1 log2FC (Gene 23411): 1.263 | ITGB3BP log2FC (Gene 23421): 0.773 | PES1 log2FC (Gene 23481): -0.445 | ZFYVE26 log2FC (Gene 23503): 0.361 | SCRIB log2FC (Gene 23513): -0.165 | CCNDBP1 log2FC (Gene 23582): 0.710 | CD2AP log2FC (Gene 23607): 0.637 | NUP62 log2FC (Gene 23636): -0.576 | RABGAP1 log2FC (Gene 23637): 0.485 | PPP1R15A log2FC (Gene 23645): 1.011 | POLA2 log2FC (Gene 23649): -0.863 | ZNF318 log2FC (Gene 24149): 0.346 | RAD54B log2FC (Gene 25788): 0.549 | NIPBL log2FC (Gene 25836): 0.842 | INTS7 log2FC (Gene 25896): 0.076 | AHCTF1 log2FC (Gene 25909): 0.469 | SIN3A log2FC (Gene 25942): 0.788 | SH2B1 log2FC (Gene 25970): -0.484 | EGFL6 log2FC (Gene 25975): 0.028 | SENP6 log2FC (Gene 26054): 0.596 | FBXO6 log2FC (Gene 26270): 0.322 | FBXO5 log2FC (Gene 26271): 0.498 | NUPR1 log2FC (Gene 26471): 0.023 | AATF log2FC (Gene 26574): -0.362 | CKAP2 log2FC (Gene 26586): 0.829 | HBP1 log2FC (Gene 26959): 3.023 | MLH3 log2FC (Gene 27030): 0.187 | MTBP log2FC (Gene 27085): 0.847 | TJP3 log2FC (Gene 27134): 0.162 | VPS4A log2FC (Gene 27183): -0.366 | PDCD4 log2FC (Gene 27250): 1.281 | APEX2 log2FC (Gene 27301): -0.875 | UBE2S log2FC (Gene 27338): -0.678 | EML4 log2FC (Gene 27436): -0.240 | PPP2R3B log2FC (Gene 28227): -0.106 | MCTS1 log2FC (Gene 28985): -0.243 | HIPK2 log2FC (Gene 28996): -0.166 | BRD7 log2FC (Gene 29117): 0.662 | RACGAP1 log2FC (Gene 29127): 0.627 | UHRF1 log2FC (Gene 29128): -0.406 | PSMC3IP log2FC (Gene 29893): 0.342 | GPSM2 log2FC (Gene 29899): 0.274 | SAC3D1 log2FC (Gene 29901): 0.069 | RPA4 log2FC (Gene 29935): -0.445 | ANAPC4 log2FC (Gene 29945): 0.654 | SERTAD1 log2FC (Gene 29950): -1.280 | CUZD1 log2FC (Gene 50624): 0.419 | PARD6A log2FC (Gene 50855): -0.204 | GMNN log2FC (Gene 51053): 0.163 | RPS27L log2FC (Gene 51065): 0.265 | MLXIPL log2FC (Gene 51085): 0.256 | SBDS log2FC (Gene 51119): 0.607 | DYNC1LI1 log2FC (Gene 51143): 0.709 | ING4 log2FC (Gene 51147): 1.465 | TUBE1 log2FC (Gene 51175): 0.231 | LEF1 log2FC (Gene 51176): -0.842 | HERC5 log2FC (Gene 51191): 0.711 | NUSAP1 log2FC (Gene 51203): 0.849 | DUSP13 log2FC (Gene 51207): -0.060 | WAC log2FC (Gene 51322): 0.945 | DACT1 log2FC (Gene 51339): 0.045 | FZR1 log2FC (Gene 51343): -0.538 | TAOK3 log2FC (Gene 51347): 1.243 | PRKAG2 log2FC (Gene 51422): -0.498 | SNX9 log2FC (Gene 51429): 0.822 | ANAPC7 log2FC (Gene 51434): -0.070 | LCMT1 log2FC (Gene 51451): -0.115
